Where two headings read alike, the source gives them in different places.
How the values were obtained:
[1] = physical-chemical properties of LNP encapsulating mCherry mRNA; type: physicochemical; conditions: for Hydrodynamic diameter: LNP: ionizable lipid/DSPC/cholesterol/DMG-PEG2000 50:10:38.5:1.5, mCherry mRNA, pH 7.4 Tris, 25° C.
From the text: The mRNA was encapsulated in LNP using a self-assembly process in which an aqueous solution of mRNA at pH=3.5 is rapidly mixed with a solution of lipids dissolved in ethanol, then followed by stepwise phosphate and Tris buffer dilution and tangential flow filtration (TFF) purification. LNP composition in this study was: ionizable cationic lipid/distearoylphosphatidylcholine/cholesterol/DMG-PEG2000 (50:10:38.5:1.5 mol/mol) and were encapsulated at an N/P ratio (the ratio of positively-chargeable lipid amine (N=nitrogen) groups to negatively-charged nucleic acid phosphate (P) groups) at 6. LNPs were frozen at −80° C. […] The diameter of the nanoparticles was measured by dynamic light scattering using a Zetasizer Nano ZS (Malvern Instruments Ltd., Malvern, UK) instrument. Size measurement was carried out in pH 7.4 Tris buffer at 25° C. in relevant disposable capillary cells. A non-invasive back scatter system (NIBS) with a scattering angle of 173° was used for size measurements.

mouse splenic T cells = test: targeted transfection of T cells in vitro with CD5-targeted tLNP; type: cell-based; conditions: activated mouse splenic T cells, 0.6 μg tLNP per well; for transfection rate (proportion of CD3+ cells mCherry positive): 1 hour, read next day
Protocol: To assess the performance of tLNP described in Example 35 they were used to transfect mouse T cells in tissue culture. Mouse splenic T cells were isolated from mechanically dissociated mouse spleens using a standard T cell isolation kit (Stem Cell Technologies #19851). Isolated T cells were cultured in complete RPMI medium supplemented with murine interleukin-2 in the presence of CD3/CD28 T cell activation beads (Gibco #11453D) for 3 days. Following activation, T cells were magnetically separated from the activation beads and transferred to a 96-well plate at a concentration of 2×10^5 cells per well in 100 μL of complete RPMI medium. tLNP formulations as described in Example 35 (above) were diluted to 100 μg/mL and 6 μL (0.6 μg) of tLNP was added to each well of cells to be tested. Cells were incubated with tLNPs at 37° C. for 1 hour before tLNPs were washed away by centrifuging the plate, removing the supernatant, and replacing with fresh medium. Transfected cells were then returned to the incubator overnight. The next day, cells were washed and resuspended in stain buffer containing fluorescently tagged antibodies against T cells markers for 30 minutes before a final wash. After washing, cells were resuspended in stain buffer and run on the Novocyte Quanteon flow cytometer to detect mCherry expression as well as murine T cell markers. Results for CD3^+ T cells are depicted in FIG. 6.

[2] = ex vivo stability in mouse plasma; type: in vitro ADME; conditions: 37° C.; for ex vivo Mouse Plasm Stability % Remaining at 2 Hours: CD-1 mouse plasma, 1 μM lipid
Protocol: To determine the stability of the disclosed lipids in mouse plasma lipid stock solution was prepared by dissolution of the lipid in isopropanol at the concentration of 5 mg/mL. A requisite volume of the lipid-isopropanol solution was then diluted to 100 μM concentration at a total volume of 10.0 mL with 50:50 (v/v) ethanol/water. Ten microliters of this 100 μM solution was spiked into 10.0 mL of mouse plasma (BioIVT, Lot MSE394920, CD-1 mouse, anticoagulant: sodium heparin, not filtered) that was prewarmed to 37° C. and stirred at 50 rpm with a magnetic stir bar. The starting concentration of lipids in plasma was thus 1 μM. Aliquots (50 μL) were taken after 0, 15, 30, 45, 60, and 120 minutes, transferred to microcentrifuge tubes and quenched with three volumes (150 μL) of ice cold acetonitrile/methanol (4:1). Positive control incubations utilized the same plasma, with Benfluorex (1 μM) as the substrate with Labetalol (1.0 μgl) as the in situ disappearance. The quenched solutions were vortexed, centrifuged for 5 minutes at 13,000 rpm, and supernatant (100 μL) transferred to a 96-well plate and diluted with water (200 μL, 0.1% FA). After filtration through a 0.45 μm 96-well filtering plate, the filtrates were analyzed by LC-MS (Waters AQUITY I-class UPLC system, ThermoScientific Vanquish UPLC system consisting of a binary pump, autosampler, and column compartment, Waters Xevo G2-XS QT of mass spectrometer; Phenomenex F5, 1.7 μm, 2.1×50 mm column). Mobile phase A was 0.1% formic acid in water, and mobile phase B was 0.1% formic acid in acetonitrile. The flow rate was 0.6 mL/min. Elution gradient was as follows: time, 0.5 min: 20% B; 0.5-2 min: 20-100% B; 2-4.8 min: 100% B; 4.8-5.45 min: 100-20% B. Mass spectrometry was in positive scanning mode from 600-1100 m/z. The peak of the molecular ion of the lipids was integrated in extracted ion chromatography (XIC) using Xcalibur software (Thermo Fisher). The relative peak area compared to T=0, after normalization by the peak area of the internal standard, was used as the percentage of the lipid remaining at each time point. T1/2 values were calculated using the first-order decay model.

[3] = apparent pKa of ionizable lipid in lipid nanoparticle, TNS assay; type: physicochemical; conditions: for ΔpKa: difference of calculated and measured pKa; for pKa: TNS assay
Protocol: c Log D and c-pKa were calculated as noted above. The measured pKa of a lipid was determined as formulated in a lipid nanoparticle using the TNS assay as described in the following Example.
The apparent pKa of ionizable lipid in the lipid nanoparticle was determined using 6-(p-toluidino)-2-naphthalenesulfonic acid sodium salt (TNS salt, Toronto Research Chemicals, Toronto, ON, Canada). Lipid nanoparticles were diluted in 1×Dulbecco's PBS to a concentration of 1 mM total lipids. TNS salt was prepared as a 1 mg/mL stock solution in DMSO and then further diluted using distilled water to a working solution of 60 μg/mL ([…]). Diluted lipid nanoparticle samples were further diluted to 90 μM total lipids in 165 μL of buffered solution containing 10 mM HEPES, 10 mM MES, 10 mM ammonium acetate, 130 mM NaCl, and final TNS concentration of 1.33 μg/mL (4 μM) with the pH ranging from 3.5 to 12.2. Following pipette mixing and incubation at room temperature in the dark for 15 min, fluorescence intensity was measured at room temperature in a BioTek Synergy H1 plate reader using excitation and emission wavelengths of 321 and 445 nm, respectively. The fluorescence signal was blank subtracted and plotted as a function of the pH, then analyzed using a nonlinear (Boltzmann) regression analysis with the apparent pKa determined as the pH giving rise to half maximal fluorescence intensity as calculated by the Henderson-Hasselbalch equation.

[4] = ionizable lipid in tLNP, read-out: Measured pKa
[5] = measured, lipid formulated in a lipid nanoparticle, read-out: pKa

| Structure (SMILES) | Hydrodynamic diameter ([1]; N/P 6, DLS) [nm] | level of mCherry expression (MFI) (mouse splenic T cells) | transfection rate (proportion of CD3+ cells mCherry positive) (mouse splenic T cells) | half-life at 1 μM ([2]; CD-1, mouse plasma) [h] | ex vivo Mouse Plasm Stability % Remaining at 2 Hours [2] [%] | ΔpKa [3] | pKa [3, 4] | pKa [3, 5] | Encapapsulation Efficiency ([1]; LNP 50:10:38.5:1.5, mCherry mRNA, N/P 6) [%] | PDI (polydispersity index) ([1]; LNP 50:10:38.5:1.5, mCherry mRNA, DLS) |
| --- | --- | --- | --- | --- | --- | --- | --- | --- | --- | --- |
| CCCCCCCCC(=O)OCC(COC(=O)CCCCCCCC)CC(=O)OCCN(CCOC(=O)CC(COC(=O)CCCCCCCC)COC(=O)CCCCCCCC)C(=O)OCCN(C)C [Compound A-11] | 82 | high level of expression | ~80% | < 10 | 86 | 1.81 | 6.65 | 6 to 7 |  |  |
| CCCCCCCCCC(=O)OCC(COC(=O)CCCCCCCCC)CC(=O)OCCN(CCOC(=O)CC(COC(=O)CCCCCCCCC)COC(=O)CCCCCCCCC)C(=O)NCCCN(C)C [Compound A-2] | 73 |  | poor, but still positive |  | 72 | 1.62 | 7.92 | 7.92 | 99 | 0.13 |

Source: patent publication US20230320995A1, “IONIZABLE CATIONIC LIPIDS AND LIPID NANOPARTICLES” (CAPSTAN THERAPEUTICS, INC., priority 2022, published 2023)
